Common to all, as to settings: Compound concentration 10.0 uM
Assay [1] concerns the target Angiopoietin-1 receptor (Homo sapiens) (UniProt Q02763).
Assay [2] addresses Mast/stem cell growth factor receptor Kit (Homo sapiens) (UniProt P10721).
Assay [3] has as its target Serine/threonine-protein kinase MARK2 (Homo sapiens) (UniProt Q7KZI7).
For assay [4], the target named is Alpha-1A adrenergic receptor (Homo sapiens) (UniProt P35348).
Assay [5] deals with T1, Tyrosine-protein kinase ZAP-70 (Homo sapiens) (UniProt P43403).
T1 sequence (whole entry): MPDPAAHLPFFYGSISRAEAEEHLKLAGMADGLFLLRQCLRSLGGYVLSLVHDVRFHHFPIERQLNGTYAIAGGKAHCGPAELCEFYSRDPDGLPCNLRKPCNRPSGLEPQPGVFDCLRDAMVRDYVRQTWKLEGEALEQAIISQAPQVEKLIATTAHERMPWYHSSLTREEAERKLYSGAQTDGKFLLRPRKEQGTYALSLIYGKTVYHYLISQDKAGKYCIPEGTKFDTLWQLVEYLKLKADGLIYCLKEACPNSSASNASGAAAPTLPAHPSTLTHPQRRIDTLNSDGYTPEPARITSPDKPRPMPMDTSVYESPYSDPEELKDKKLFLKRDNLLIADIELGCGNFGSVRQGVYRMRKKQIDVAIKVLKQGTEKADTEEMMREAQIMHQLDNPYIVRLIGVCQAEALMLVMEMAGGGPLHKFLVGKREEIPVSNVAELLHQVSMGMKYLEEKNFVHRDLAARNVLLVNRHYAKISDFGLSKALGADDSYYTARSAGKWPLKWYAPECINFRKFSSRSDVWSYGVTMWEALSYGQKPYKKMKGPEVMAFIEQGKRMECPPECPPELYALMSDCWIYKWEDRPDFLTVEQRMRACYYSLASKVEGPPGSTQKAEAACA

Assay [6] deals with T2, Tyrosine-protein kinase JAK3 (Homo sapiens) (UniProt P52333).
T2 sequence (whole entry): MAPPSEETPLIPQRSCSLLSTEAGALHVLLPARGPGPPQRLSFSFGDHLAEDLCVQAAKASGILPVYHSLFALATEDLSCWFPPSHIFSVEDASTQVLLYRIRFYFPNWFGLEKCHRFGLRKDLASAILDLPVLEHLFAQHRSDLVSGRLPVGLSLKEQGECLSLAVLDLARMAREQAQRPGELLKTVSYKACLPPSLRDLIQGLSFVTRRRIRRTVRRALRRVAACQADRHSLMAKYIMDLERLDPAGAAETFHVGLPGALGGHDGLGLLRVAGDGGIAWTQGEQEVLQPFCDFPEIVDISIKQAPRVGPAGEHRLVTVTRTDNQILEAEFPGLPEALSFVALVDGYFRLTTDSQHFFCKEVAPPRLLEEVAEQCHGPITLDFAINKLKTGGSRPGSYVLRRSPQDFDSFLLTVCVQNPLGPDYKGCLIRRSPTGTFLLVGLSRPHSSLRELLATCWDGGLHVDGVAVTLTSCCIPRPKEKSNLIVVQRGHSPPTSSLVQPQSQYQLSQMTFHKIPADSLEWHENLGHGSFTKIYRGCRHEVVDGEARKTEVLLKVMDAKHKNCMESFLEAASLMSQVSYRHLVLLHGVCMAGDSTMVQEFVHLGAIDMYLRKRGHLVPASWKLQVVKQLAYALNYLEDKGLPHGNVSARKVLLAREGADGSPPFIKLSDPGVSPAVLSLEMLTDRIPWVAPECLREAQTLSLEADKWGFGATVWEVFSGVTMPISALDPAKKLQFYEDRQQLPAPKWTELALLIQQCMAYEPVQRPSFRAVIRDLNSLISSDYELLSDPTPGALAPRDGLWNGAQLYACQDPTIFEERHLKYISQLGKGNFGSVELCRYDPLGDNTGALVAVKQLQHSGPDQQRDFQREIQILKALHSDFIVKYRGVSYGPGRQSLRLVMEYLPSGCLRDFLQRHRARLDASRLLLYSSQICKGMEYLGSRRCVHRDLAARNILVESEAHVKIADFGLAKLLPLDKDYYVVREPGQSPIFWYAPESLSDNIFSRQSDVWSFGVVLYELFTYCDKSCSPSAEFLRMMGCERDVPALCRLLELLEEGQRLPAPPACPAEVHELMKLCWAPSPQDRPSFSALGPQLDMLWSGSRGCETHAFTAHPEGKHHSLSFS

Assay [7] deals with Mitogen-activated protein kinase 1 (Homo sapiens) (UniProt P28482).
Assay [8] concerns the target Alpha-2A adrenergic receptor (Homo sapiens) (UniProt P08913).
Assay [9] addresses Insulin-like growth factor 1 receptor (Homo sapiens) (UniProt P08069).

Data on one compound can be found in ChEMBL document CHEMBL4507281, “Data for DCP probe BI-4394” (2021).

Chain of Alpha-1A adrenergic receptor (Homo sapiens) (P35348 whole entry): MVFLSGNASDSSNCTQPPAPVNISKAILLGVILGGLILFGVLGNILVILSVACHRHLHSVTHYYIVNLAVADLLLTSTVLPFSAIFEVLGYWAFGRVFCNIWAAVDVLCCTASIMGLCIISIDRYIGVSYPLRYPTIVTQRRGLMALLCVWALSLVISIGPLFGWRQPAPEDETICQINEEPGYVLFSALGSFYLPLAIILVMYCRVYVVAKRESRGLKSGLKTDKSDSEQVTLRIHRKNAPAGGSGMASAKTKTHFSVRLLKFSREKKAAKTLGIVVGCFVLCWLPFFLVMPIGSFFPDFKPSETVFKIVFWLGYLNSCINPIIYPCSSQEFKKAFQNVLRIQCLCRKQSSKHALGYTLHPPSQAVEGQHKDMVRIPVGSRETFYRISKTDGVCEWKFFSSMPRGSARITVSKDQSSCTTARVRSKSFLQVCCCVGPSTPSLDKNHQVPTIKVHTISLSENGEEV
Chain of Insulin-like growth factor 1 receptor (Homo sapiens) (P08069 31-736 limits assumed): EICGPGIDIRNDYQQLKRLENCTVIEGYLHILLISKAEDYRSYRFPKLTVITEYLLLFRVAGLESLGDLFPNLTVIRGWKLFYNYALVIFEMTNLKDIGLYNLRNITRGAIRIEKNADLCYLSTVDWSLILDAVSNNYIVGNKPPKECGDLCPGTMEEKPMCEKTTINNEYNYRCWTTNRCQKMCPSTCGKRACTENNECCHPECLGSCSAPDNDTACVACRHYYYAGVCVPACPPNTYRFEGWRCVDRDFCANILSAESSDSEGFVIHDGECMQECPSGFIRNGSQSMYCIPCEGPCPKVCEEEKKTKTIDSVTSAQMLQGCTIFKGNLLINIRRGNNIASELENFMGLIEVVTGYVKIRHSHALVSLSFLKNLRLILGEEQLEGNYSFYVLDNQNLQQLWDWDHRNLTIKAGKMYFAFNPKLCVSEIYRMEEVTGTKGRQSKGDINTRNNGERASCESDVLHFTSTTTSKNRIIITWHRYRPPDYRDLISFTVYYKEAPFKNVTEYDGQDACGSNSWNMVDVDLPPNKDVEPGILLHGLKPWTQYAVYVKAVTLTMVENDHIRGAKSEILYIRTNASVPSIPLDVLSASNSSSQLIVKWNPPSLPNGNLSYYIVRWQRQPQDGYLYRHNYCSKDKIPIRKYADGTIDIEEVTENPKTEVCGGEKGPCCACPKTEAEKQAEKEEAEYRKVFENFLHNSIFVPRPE
Chain of Insulin-like growth factor 1 receptor (Homo sapiens) (P08069 741-1367 limits assumed): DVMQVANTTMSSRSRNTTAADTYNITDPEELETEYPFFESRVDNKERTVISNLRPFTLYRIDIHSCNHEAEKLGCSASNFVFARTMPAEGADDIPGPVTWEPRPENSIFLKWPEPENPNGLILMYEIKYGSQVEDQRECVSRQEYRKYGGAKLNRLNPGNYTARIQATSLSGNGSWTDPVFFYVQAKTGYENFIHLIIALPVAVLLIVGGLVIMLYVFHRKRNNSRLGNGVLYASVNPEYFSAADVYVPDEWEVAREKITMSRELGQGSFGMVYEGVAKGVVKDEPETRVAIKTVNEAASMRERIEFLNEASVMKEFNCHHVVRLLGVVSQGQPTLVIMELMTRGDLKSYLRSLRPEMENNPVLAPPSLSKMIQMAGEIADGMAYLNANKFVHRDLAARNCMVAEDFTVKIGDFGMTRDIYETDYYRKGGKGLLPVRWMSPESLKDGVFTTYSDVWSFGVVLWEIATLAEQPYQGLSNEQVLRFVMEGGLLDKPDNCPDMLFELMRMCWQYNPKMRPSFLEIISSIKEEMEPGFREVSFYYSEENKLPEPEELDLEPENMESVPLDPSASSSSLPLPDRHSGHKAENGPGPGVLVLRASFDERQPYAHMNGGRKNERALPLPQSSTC
Chain of Angiopoietin-1 receptor (Homo sapiens) (Q02763 whole entry): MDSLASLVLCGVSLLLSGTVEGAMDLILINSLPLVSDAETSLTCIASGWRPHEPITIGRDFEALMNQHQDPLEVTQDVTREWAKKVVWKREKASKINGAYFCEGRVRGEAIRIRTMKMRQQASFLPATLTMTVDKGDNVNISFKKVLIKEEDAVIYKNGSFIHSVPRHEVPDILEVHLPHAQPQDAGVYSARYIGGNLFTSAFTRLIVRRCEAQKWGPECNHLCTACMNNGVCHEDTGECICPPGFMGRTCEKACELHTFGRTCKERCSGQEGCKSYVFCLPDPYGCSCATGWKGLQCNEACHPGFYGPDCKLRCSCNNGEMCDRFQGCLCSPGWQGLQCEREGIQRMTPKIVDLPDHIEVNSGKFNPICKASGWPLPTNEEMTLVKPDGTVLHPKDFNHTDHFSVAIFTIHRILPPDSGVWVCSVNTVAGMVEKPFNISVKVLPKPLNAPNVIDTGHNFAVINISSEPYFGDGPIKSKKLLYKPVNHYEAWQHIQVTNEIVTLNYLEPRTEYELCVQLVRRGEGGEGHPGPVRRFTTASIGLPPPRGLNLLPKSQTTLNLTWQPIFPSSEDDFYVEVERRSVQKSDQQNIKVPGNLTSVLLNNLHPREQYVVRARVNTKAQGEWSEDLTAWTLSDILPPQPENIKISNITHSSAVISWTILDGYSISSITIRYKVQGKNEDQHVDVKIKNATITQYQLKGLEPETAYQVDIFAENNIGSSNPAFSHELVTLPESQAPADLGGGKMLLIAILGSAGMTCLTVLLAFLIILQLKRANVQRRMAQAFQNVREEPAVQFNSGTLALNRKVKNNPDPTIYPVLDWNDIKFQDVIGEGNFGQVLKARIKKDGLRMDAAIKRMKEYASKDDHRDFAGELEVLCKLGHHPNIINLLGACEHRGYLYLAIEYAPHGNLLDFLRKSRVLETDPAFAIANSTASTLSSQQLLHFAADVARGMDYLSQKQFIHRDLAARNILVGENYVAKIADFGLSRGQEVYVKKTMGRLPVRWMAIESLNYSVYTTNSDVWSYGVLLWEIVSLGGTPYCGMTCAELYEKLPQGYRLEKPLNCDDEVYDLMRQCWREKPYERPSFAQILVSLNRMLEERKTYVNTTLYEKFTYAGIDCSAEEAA
Chain of Mitogen-activated protein kinase 1 (Homo sapiens) (P28482 whole entry): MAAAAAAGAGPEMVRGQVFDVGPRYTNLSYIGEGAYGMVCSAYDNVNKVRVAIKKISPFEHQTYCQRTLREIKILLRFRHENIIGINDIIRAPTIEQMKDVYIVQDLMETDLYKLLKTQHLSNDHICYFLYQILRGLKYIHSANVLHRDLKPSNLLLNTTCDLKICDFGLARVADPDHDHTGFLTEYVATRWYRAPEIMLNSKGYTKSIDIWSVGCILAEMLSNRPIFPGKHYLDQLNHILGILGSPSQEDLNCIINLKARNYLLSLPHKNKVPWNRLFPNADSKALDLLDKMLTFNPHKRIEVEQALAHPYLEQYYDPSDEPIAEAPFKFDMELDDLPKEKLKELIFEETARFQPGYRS
Chain of Mast/stem cell growth factor receptor Kit (Homo sapiens) (P10721 whole entry): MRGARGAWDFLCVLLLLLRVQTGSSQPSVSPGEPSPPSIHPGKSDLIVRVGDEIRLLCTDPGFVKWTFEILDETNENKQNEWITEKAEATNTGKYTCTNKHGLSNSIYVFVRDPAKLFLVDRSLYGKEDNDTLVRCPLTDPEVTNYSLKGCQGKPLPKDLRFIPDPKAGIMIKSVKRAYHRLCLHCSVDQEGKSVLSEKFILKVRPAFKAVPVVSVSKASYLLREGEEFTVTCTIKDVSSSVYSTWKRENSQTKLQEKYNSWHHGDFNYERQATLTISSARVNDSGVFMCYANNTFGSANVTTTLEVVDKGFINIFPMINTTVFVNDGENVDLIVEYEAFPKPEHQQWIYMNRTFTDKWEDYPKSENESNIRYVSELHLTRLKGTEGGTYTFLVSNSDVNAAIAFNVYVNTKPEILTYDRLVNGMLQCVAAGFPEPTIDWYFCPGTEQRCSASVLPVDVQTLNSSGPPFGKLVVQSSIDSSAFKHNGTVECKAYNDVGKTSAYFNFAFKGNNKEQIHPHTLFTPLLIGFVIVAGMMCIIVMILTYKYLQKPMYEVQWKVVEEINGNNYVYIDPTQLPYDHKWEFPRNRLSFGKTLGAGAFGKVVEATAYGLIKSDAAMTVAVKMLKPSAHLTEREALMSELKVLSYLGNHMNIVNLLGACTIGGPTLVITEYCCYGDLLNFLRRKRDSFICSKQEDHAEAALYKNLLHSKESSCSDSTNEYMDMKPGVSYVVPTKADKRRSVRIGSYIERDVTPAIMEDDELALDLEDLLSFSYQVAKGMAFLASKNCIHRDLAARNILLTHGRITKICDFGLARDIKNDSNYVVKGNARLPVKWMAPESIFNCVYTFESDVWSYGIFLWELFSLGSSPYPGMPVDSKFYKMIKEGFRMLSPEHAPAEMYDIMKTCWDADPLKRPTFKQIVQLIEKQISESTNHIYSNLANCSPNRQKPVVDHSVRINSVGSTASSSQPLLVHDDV
Chain of Alpha-2A adrenergic receptor (Homo sapiens) (P08913 whole entry): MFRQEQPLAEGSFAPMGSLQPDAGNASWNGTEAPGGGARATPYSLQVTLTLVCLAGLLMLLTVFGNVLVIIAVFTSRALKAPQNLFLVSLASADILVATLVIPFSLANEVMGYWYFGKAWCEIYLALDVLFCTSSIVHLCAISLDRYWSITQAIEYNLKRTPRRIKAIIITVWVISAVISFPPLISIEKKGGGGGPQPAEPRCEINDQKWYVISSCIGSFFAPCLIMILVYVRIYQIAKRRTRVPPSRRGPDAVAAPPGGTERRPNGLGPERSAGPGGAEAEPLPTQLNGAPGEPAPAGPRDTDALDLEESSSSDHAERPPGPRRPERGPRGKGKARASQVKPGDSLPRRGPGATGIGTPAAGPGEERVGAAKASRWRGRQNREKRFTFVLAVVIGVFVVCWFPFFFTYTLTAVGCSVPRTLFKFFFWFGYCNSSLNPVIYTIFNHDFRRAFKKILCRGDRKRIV

On to `CCOC(=O)c1cc2cc(-c3cc(C(=O)NCc4ccc(C(=O)O)cc4)nn3C)ccc2[nH]1` [BI 4394], for which the residual activity in assay [1] was 85%; in assay [2], 77%; in assay [3], 107%; in assay [5], 100%; in assay [6], 44%; in assay [7] it was 84%. In addition, in assay [9], the residual activity was 88%. Further, the inhibition in assay [4] was -6.15%; in assay [8], 12.3%.

The inhibition is the drop in the measured response relative to a control, in per cent.
